According to patent US10251860B2, “Compounds for bone healing” (University of Pittsburgh—Of the Commonwealth System of …, priority 2015, dated 2019):
Entries after “also recorded” stand apart in the source; their conditions may differ.

How the values were obtained:
[1] = test system: C57BL/6NTac mice, 20 Gy thoracic irradiation; test: Radiation pulmonary fibrosis after 20 Gy thoracic irradiation; type: in vivo, mouse; details: MMS350 in drinking water
From the text: For lung irradiation, mice were irradiated to the thoracic cavity with shielding of the head and neck region and abdomen and lower body according to published methods. Animals received 20 Gy single fraction thoracic irradiation and were then maintained according to IACUC directed laboratory conditions. Mice were sacrificed at serial time points after thoracic irradiation including pre-irradiation, days 2, 7, 14, 28, 50, 75, 100, 110, 150 and 200 post-irradiation. Lungs were removed and sagittal sections assayed for percent of lung replaced by fibroblasts and organizing alveolitis according to published methods. Representative lung lobes from the same animals were tested by RT-PCR for level of detectable message for inflammatory cytokines, redox sensitive promoters, and levels of MnSOD.
Lungs from irradiated and luc+ cell line injected mice were removed and serial sectioned. Sections were stained for luc+, GFP+ cells, BrdU incorporation, and for quantitation of percent lung replaced by fibrosis (organizing alveolitis) according to published methods.
(§1) Mice were injected intra-peritoneally with MMS350 or JP4-039 (GS-nitroxide) in 50% cremphor/50% ethanol according to published methods. For long-term administration of MMS350, the drug was administered in water bottles with bottles changed every 7 days. The dose of drug per bottle was 100 μM MMS350 starting on day 88. The estimated total amount consumed by each animal daily was 10.9 μg based on a mouse drinking 5 ml of water per day. Chimeric mice irradiated to the thoracic cavity were placed 30 days later on MMS350 in water containing 100 mM MMS350. On day 88 after thoracic irradiation of non-chimeric mice, mice were placed on […] MMS350 in drinking water.

32D cl 3 cells = test: 32D cl 3 colony formation in semisolid medium after irradiation; type: cell-based, murine; details: delivered before or after irradiation
[2] = test system: C57BL/6NTac female mice, tibia holes; test: Bone wound healing in drilled mouse tibias (high resolution CT); type: in vivo; details: day 21
Description: Eighteen C57BL/6NTac female mice were divided into 2 groups of 9 mice. The first group was placed on water containing 400 μM MMS350. One week later the MMS350 mice were injected IP with 20 mg/kg MMS350 in water 15 minutes before irradiation. The control mice and the MMS350 treated mice were anesthetized with Nembutal and the right hind leg was irradiated to 20 Gy with the remainder of the mouse shielded from the irradiation. Twenty-four hours later holes were drilled into the tibias of all the mice. The MMS350 treated mice were kept on the MMS350 with the water changed weekly. Twenty-one days later the mice were sacrificed and both tibias removed, and fixed. The tibias were imaged using a high resolution CT. The holes in the tibias were measured and the volume of the holes determined.

[3] = test system: C57BL/6NTac mice, 9.5 Gy total body irradiation; test: Total body irradiation survival (hematopoietic syndrome); type: in vivo, mouse
Description: FIG. 13 is a graph of percent survival versus day, illustrating the in vivo mitigation of total body irradiation by MMS350. MMS350 was dissolved in water at a concentration of 2 mg/ml. C57BL/6NTac mice (n=15/group) were irradiated to 9.5 Gy total body irradiation and injected intraperitoneally with 10 mg/kg of MMS350 at 4 or 24 hours after irradiation. The mice were followed for the development of the hematopoietic syndrome at which time the mice were sacrificed.
Mice were irradiated using JL Shepherd Mark 1 Model 68 irradiator to 9.25 total body irradiation dose or a Varian Linear Accelerator (Varian Medical Systems, Inc, Palo Alto, Calif.) to 20 Gy for pulmonary irradiation according to published methods (2, 10, 13).
as §1

## CC1(C[S+]([O-])CC2(C)COC2)COC1 [Compound 3, 3,3′-Sulfinylbis(methylene)bis(3-methyloxetane)]
[1]; 20 Gy thoracic irradiated mice
  survival: significantly increased survival
[1]; 20 Gy thoracic irradiation
  pulmonary fibrosis: decreased radiation pulmonary fibrosis; also recorded: significant decrease in pulmonary fibrosis
[1]; thoracic-irradiated mice, −MMS350 20.8 ± 3.9, p < 0.0001
  Percent Pulmonary Fibrosis: 3.6 ± 1.1%
32D cl 3 cells
  radiation protection and mitigation of colony forming cells: significant effectiveness
[2]; 0 Gy tibia vs control 0 Gy, 400 μM in water plus 20 mg/kg IP
  diameter of tibia hole: significantly smaller
[2]; 0 Gy+ MMS350 vs control 20 Gy irradiated tibia
  volume of tibia hole: significantly smaller
[2]; 20 Gy irradiated tibia vs control 20 Gy
  diameter of tibia hole: significantly smaller
[2]; 20 Gy+ MMS350 vs control 20 Gy irradiated tibia
  volume of tibia hole: significantly smaller
[3]; 9.5 Gy TBI, 10 mg/kg intraperitoneally 4 hours after irradiation, p=0.0092
  survival: significantly increased survival
[3]; 9.5 Gy TBI, 10 mg/kg intraperitoneally 24 hours after irradiation, p=0.0097
  survival: significantly increased survival
[3]; intraperitoneal injection before or after 9.5 Gy TBI, C57BL/6 mice, n=15/group
  protection and mitigation against total body irradiation: both a protector when delivered prior to irradiation and mitigator when delivered after irradiation comparable to JP4-039
[3]; single dose 24 hours after 9.5 Gy TBI, C57BL/6/HNsd mice
  survival: significant improvement in survival
